From patent US20240398885A1, “FULL LIGHT REPAIR” (Coty Inc., priority 2021, published 2024)

Key:
[1] = system: normal human keratinocytes; assay: Comet assay with T4 endonuclease V to detect cyclobutane pyrimidine dimers (CPD) after light exposure; type: cell-based; settings: UVB and visible light; creatine included in the compositions
Protocol: (§1) Experiments were carried out using the protocol discussed in Chamayou-Robert et al. Photodermatol Photoimmunol Photomed. 2021; 00:1-7. Briefly, experiments were performed on normal human keratinocytes. Cells were exposed to either UVB (280-315 nm), UVA (315-400 nm), visible light, blue light (400-500 nm), or infra-red (760 nm-1 mm) for a time to induce DNA damage. Cells were then treated with the compositions indicated in FIGS. 3(a), 3(b) and 4(a), 4(b) and 4(c), respectively and DNA damage was analyzed by using the comet assay (Wischermann et al. Mutat Res. 2007; 630:122-128; Jean et al. Photochem Photobiol. 2007; 74 (3): 417-423; Azqueta et al. Mutagenesis. 2013; 28:271-277; Chamayou-Robert et al. Photoderm Photoimmun. 2021; 00:1-7) with the use of specific enzymes, formamidopyrimidine DNA glycosylase (FPG) or T4 endonuclease V in order to detect oxidized DNA-bases and cyclobutane pyrimidine dimers (CPD) respectively.
(§2) Compositions comprising creatine in an amount of 0.5% w/w, Micrococcus Lysate in an amount of 0.0005% w/w and Arabidopsis Thaliana extract in an amount of 0.0005% w/w were tested in this example.

[2] = system: normal human keratinocytes; assay: Comet assay with formamidopyrimidine DNA glycosylase (FPG) to detect oxidized DNA-bases after light exposure; type: cell-based; settings: UVA, IR and visible light; creatine included in the compositions
Protocol: as §1, §2

CN(CC(=O)O)C(=N)N [creatine, Creatine]
effect on the DNA repair of CPD damage induced by light [1]: boosting effect | effect on the DNA repair of oxidative DNA damage induced by light [2]: boosting effect
